In patent publication US20220402950A1, “SUBSTITUTED BENZIMIDAZOLES AS PAD4 INHIBITORS” (BRISTOL-MYERS SQUIBB COMPANY, priority 2018, published 2022):

Each molecule was assayed against human PAD4 (hPAD4) (Homo sapiens, UniProt Q9UM07) (assay: RFMS Human PAD4 Functional Assay). Details: hPAD4 RFMS IC50, human PAD4, rapid-fire mass spectrum (RFMS) assay; 5 nM hPAD4, 250 μM BAEE.
Chain of human PAD4 (hPAD4) (Q9UM07 whole entry): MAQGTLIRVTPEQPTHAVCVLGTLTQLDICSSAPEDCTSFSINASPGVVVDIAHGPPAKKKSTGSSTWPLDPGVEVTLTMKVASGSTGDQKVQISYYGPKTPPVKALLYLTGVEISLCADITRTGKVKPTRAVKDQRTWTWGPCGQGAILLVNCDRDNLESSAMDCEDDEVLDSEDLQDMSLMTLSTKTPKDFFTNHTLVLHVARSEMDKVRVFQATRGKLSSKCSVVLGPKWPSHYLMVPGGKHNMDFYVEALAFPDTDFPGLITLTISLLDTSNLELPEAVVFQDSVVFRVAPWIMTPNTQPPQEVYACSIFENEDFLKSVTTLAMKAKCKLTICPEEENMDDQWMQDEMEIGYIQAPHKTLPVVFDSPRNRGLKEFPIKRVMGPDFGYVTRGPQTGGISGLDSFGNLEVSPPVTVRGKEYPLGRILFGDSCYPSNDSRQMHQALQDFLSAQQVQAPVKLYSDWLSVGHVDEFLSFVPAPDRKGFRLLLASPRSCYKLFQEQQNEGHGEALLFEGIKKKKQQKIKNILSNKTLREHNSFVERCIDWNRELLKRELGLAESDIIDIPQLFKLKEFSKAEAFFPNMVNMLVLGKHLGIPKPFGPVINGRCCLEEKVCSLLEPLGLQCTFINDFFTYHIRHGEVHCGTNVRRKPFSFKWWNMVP
Assay type: biochemical
In short: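 RapidFire ESI-MS quantification, normalised to a modified-citrulline internal standard, after phenyl glyoxal (final 4 mM) derivatisation of the TCA-quenched reaction. The enzyme (10 nM) sat 30 min with compound (up to 50 μM final) before 500 μM BAEE (as added) started a 90 min, 37 °C reaction. Buffer: HEPES pH 7.5, 50 μM calcium, 5 μM TPEN.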
`CCOC(=O)c1ccc(Nc2cccc3cc(-c4nc5cc(C(=O)N6CC7CCC6[C@@H]7N)cc(OC)c5n4C)n(CC4CC4)c23)cc1` (stereo partly drawn) [Example 162, ethyl 4-((2-(5-((7R)-7-amino-2-azabicyclo[2.2.1]heptane-2-carbonyl)-7-methoxy-1-methyl-1H-benzo[d]imidazol-2-yl)-1-(cyclopropylmethyl)-1H-indol-7-yl)amino)benzoate] gave an IC50 of 0.098 µM.
Molecule `COc1cc(C(=O)N2C[C@H]3CC[C@@H]2[C@@H]3N)cc2nc(-c3cc4cccc(Nc5c(C)nn(C)c5C)c4n3CC3CC3(Cl)Cl)n(C)c12` (stereo partly drawn) [Example 176, ((1R,4R,7R)-7-amino-2-azabicyclo[2.2.1]heptan-2-yl)(2-(1-((2,2-dichlorocyclopropyl)meth-yl)-7-((1,3,5-trimethyl-1H-pyrazol-4-yl)amino)-1H-indol-2-yl)-7-methoxy-1-methyl-1H-benzo[d]imidazol-5-yl)methanone] has an IC50 of 0.076 µM.
`COc1cc(C(=O)N2C[C@H]3CC[C@@H]2[C@@H]3N)cc2nc(-c3cc4cccc(C5CC(C(=O)N(C)C)C5)c4n3CC3CC3)n(C)c12` (single isomer, unassigned) [Example 48] showed an IC50 of 0.05 µM.
Molecule `COc1cc(C(=O)N2C[C@H]3CC[C@@H]2[C@@H]3N)cc2nc(-c3cc4cccc(C5CC(C(=O)N6CC[C@@H](O)C6)C5)c4n3CC3CC3)n(C)c12` (single isomer, unassigned) [Example 52] has an IC50 of 0.097 µM.
With `COc1cc(C(=O)N2C[C@H]3CC[C@@H]2[C@@H]3N)cc2nc(-c3cc4cccc(-c5cc[nH]n5)c4n3CC3CC3C)n(C)c12` (stereo partly drawn) [Example 157, ((1R,4R,7R)-7-amino-2-azabicyclo[2.2.1]heptan-2-yl)(7-methoxy-1-methyl-2-(1-((2-methylcyclopropyl)meth-yl)-7-(1H-pyrazol-3-yl)-1H-indol-2-yl)-1H-benzo[d]imidazol-5-yl)methanone] the IC50 was 0.08 µM.
Molecule `COc1cc(C(=O)N2C[C@H]3CC[C@@H]2[C@@H]3N)cc2nc(-c3cc4cccc(CCN5CCOC5=O)c4n3CC3CC3)n(C)c12` [Example 23, 3-[2-(2-{5-[(1R,4R,7R)-7-amino-2-azabicyclo[2.2.1]heptane-2-carbonyl]-7-methoxy-1-methyl-1H-1,3-benzodiazol-2-yl}-1-(cyclopropylmethyl)-1H-indol-7-yl)ethyl]-1,3-oxazolidin-2-one] has an IC50 of 0.12 µM.
In the case of `COc1cc(C(=O)N2C[C@H]3CC[C@@H]2[C@@H]3N)cc2nc(-c3cc4cccc(C5CCN(C(=O)COCC(F)(F)F)CC5)c4n3CC3CC3)n(C)c12` [Example 232, 1-(4-(2-(5-((1R,4R,7R)-7-amino-2-azabicyclo[2.2.1]heptane-2-carbonyl)-7-methoxy-1-methyl-1H-benzo[d]imidazol-2-yl)-1-(cyclopropylmethyl)-1H-indol-7-yl)piperidin-1-yl)-2-(2,2,2-trifluoroethoxy)ethan-1-one], the IC50 is reported as 0.019 µM.
With `COc1cc(C(=O)N2C[C@H]3CC[C@@H]2[C@@H]3N)cc2nc(-c3cc4cccc(C5CN(C(=O)CCC(=O)O)C5)c4n3CC3CC3)n(C)c12` [Example 68, 4-[3-(2-{5-[(1R,4R,7R)-7-amino-2-azabicyclo[2.2.1]heptane-2-carbonyl]-7-methoxy-1-methyl-1H-1,3-benzodiazol-2-yl}-1-(cyclopropylmethyl)-1H-indol-7-yl)azetidin-1-yl]-4-oxobutanoic acid] the IC50 was 0.17 µM.
Molecule `COc1cc(C(=O)N2C[C@H]3CC[C@@H]2[C@@H]3N)cc2nc(-c3cc4cccc(C5CCC(O)CC5)c4n3CC3CC3)n(C)c12` (stereo partly drawn) [Example 24, 4-(2-{5-[(1R,4R,7R)-7-amino-2-azabicyclo[2.2.1]heptane-2-carbonyl]-7-methoxy-1-methyl-1H-1,3-benzodiazol-2-yl}-1-(cyclopropylmethyl)-1H-indol-7-yl)cyclohexan-1-ol] has an IC50 of 0.061 µM.
`COc1cc(C(=O)N2C[C@H]3CC[C@@H]2[C@@H]3N)cc2nc(-c3cc4cccc(CCCS(C)(=O)=O)c4n3CC3CC3)n(C)c12` [Example 27, (1R,4R,7R)-2-{2-[1-(cyclopropylmethyl)-7-(3-methanesulfonylpropyl)-1H-indol-2-yl]-7-methoxy-1-methyl-1H-1,3-benzodiazole-5-carbonyl}-2-azabicyclo[2.2.1]heptan-7-amine] was tested, and the IC50 was 0.074 µM.
With `COc1cc(C(=O)N2CC3CCC2C3N)cc2nc(-c3cc4cccc(Nc5cnc(C#N)nc5)c4n3CC3CC3)n(C)c12` (stereo not drawn) [Example 167, 5-((2-(4-(7-amino-2-azabicyclo[2.2.1]heptane-2-carbonyl)-7-methoxy-1-methyl-1H-benzo[d]imidazol-2-yl)-1-(cyclopropyllmethyl)-1H-indol-7-yl)amino)pyrimidine-2-carbonitrile] the IC50 was 0.138 µM.
For `COc1cc(C(=O)N2C[C@H]3CC[C@@H]2[C@@H]3N)cc2nc(-c3cc4cccc(C5CC(C(=O)N6CC[C@H](O)C6)C5)c4n3CC3CC3)n(C)c12` (single isomer, unassigned) [Example 53], the IC50 was 0.051 µM.
Molecule `COc1cc(C(=O)N2C[C@H]3CC[C@@H]2[C@@H]3N)cc2nc(-c3cc4cccc(C5CN(C(=O)Nc6ccc(F)cc6)C5)c4n3CC3CC3)n(C)c12` [Example 229, 3-(2-(5-((1R,4R,7R)-7-amino-2-azabicyclo[2.2.1]heptane-2-carbonyl)-7-methoxy-1-methyl-1H-benzo[d]imidazol-2-yl)-1-(cyclopropylmethyl)-1H-indol-7-yl)-N-(4-fluorophenyl)azetidine-1-carboxamide] has an IC50 of 0.013 µM.
Work on `COCC(=O)N1CCC(c2cccc3cc(-c4nc5cc(C(=O)N6C[C@H](N)C[C@@H](F)C6)cc(OC)c5n4C)n(CC4CC4)c23)CC1` [Example 226, 1-(4-(2-(5-((3R,5R)-3-amino-5-fluoropiperidine-1-carbonyl)-7-methoxy-1-methyl-1H-benzo[d]imidazol-2-yl)-1-(cyclopropylmethyl)-1H-indol-7-yl)piperidin-1-yl)-2-methoxyethan-1-one] yielded an IC50 of 0.053 µM.
Molecule `COc1cc(C(=O)N2C[C@H]3CC[C@@H]2[C@@H]3N)cc2nc(-c3cc4cccc(-c5ccc(O)c(F)c5)c4n3CC3CC3)n(C)c12` [Example 90, 4-(2-{5-[(1R,4R,7R)-7-amino-2-azabicyclo[2.2.1]heptane-2-carbonyl]-7-methoxy-1-methyl-1H-1,3-benzodiazol-2-yl}-1-(cyclopropylmethyl)-1H-indol-7-yl)-2-fluorophenol] has an IC50 of 0.045 µM.
Work on `COC(=O)N1CCC(c2cccc3cc(-c4nc5cc(C(=O)N6C[C@H]7CC[C@@H]6[C@@H]7N)cc(OC)c5n4C)n(CC4CC4)c23)CC1` [Example 217, methyl 4-(2-(5-((1R,4R,7R)-7-amino-2-azabicyclo[2.2.1]heptane-2-carbonyl)-7-methoxy-1-methyl-1H-benzo[d]imidazol-2-yl)-1-(cyclopropylmethyl)-1H-indol-7-yl)piperidine-1-carboxylate] yielded an IC50 of 0.027 µM.
Work on `COc1cc(C(=O)N2C[C@H]3CC[C@@H]2[C@@H]3N)cc2nc(-c3cc4cccc(Nc5cnn(CC(F)(F)F)c5)c4n3CC3CC3)n(C)c12` [Example 165, ((1R,4R,7R)-7-amino-2-azabicyclo[2.2.1]heptan-2-yl)(2-(1-(cyclopropylmethyl)-7-((1-(2,2,2-trifluoroethyl)-1H-pyrazol-4-yl)amino)-1H-indol-2-yl)-7-methoxy-1-methyl-1H-benzo[d]imidazol-5-yl)methanone] yielded an IC50 of 0.075 µM.
`COc1cc(C(=O)N2CC3CCC2[C@@H]3N)cc2nc(-c3cc4cccc(Nc5ccnc(C)c5)c4n3CC3CC3)n(C)c12` (stereo partly drawn) [Example 163, ((7R)-7-amino-2-azabicyclo[2.2.1]heptan-2-yl)(2-(1-(cyclopropylmethyl)-7-((2-methylpyridin-4-yl)amino)-1H-indol-2-yl)-7-methoxy-1-methyl-1H-benzo[d]imidazol-5-yl)methanone] gave an IC50 of 0.058 µM.

Same assay, conditions: human PAD4, rapid-fire mass spectrum (RFMS) assay; 5 nM hPAD4, 250 μM BAEE; read-out: hPAD4 RFMS IC50
In the case of `COc1cc(C(=O)N2C[C@H]3CC[C@@H]2[C@@H]3N)cc2nc(-c3cc4cccc(-c5ccccc5)c4n3CC3CC3)n(C)c12` [compound 186], the IC50 is reported as 0.299 µM.
`COc1cc(C(=O)N2C[C@H]3CC[C@@H]2[C@@H]3N)cc2nc(-c3cc4cccc(-c5ccccc5O)c4n3CC3CC3)n(C)c12` [Example 87, 2-(2-{5-[(1R,4R,7R)-7-amino-2-azabicyclo[2.2.1]heptane-2-carbonyl]-7-methoxy-1-methyl-1H-1,3-benzodiazol-2-yl}-1-(cyclopropylmethyl)-1H-indol-7-yl)phenol] was tested, and the IC50 was 0.111 µM.
`COc1cc(C(=O)N2C[C@H]3CC[C@@H]2[C@@H]3N)cc2nc(-c3cc4cccc(CC5CN(C(C)=O)C5)c4n3CC3CC3)n(C)c12` [Example 63, 1-{3-[(2-{5-[(1R,4R,7R)-7-amino-2-azabicyclo[2.2.1]heptane-2-carbonyl]-7-methoxy-1-methyl-1H-1,3-benzodiazol-2-yl}-1-(cyclopropylmethyl)-H-indol-7-yl)methyl]azetidin-1-yl}ethan-1-one] gave an IC50 of 0.062 µM.
`COc1cc(C(=O)N2C[C@H]3CC[C@@H]2[C@@H]3N)cc2nc(-c3cc4cccc(-c5cn(CCO)nn5)c4n3CC3CC3)n(C)c12` (stereo in doubt) [Example 108, 2-{4-[2-(5-{7-amino-2-azabicyclo[2.2.1]heptane-2-carbonyl}-7-methoxy-1-methyl-1H-1,3-benzodiazol-2-yl)-1-(cyclopropylmethyl)-1H-indol-7-yl]-1H-1,2,3-triazol-1-yl}ethan-1-ol] gave an IC50 of 0.073 µM.
Work on `COc1cc(C(=O)N2C[C@H]3CC[C@@H]2[C@@H]3N)cc2nc(-c3cc4cc(C)ccc4n3CC3CC3)n(C)c12` [Example 153, ((1R,4R,7R)-7-amino-2-azabicyclo[2.2.1]heptan-2-yl)(2-(1-(cyclopropylmethyl)-5-methyl-1H-indol-2-yl)-7-methoxy-1-methyl-1H-benzo[d]imidazol-5-yl)methanone] yielded an IC50 of 0.135 µM.
For `COc1cc(C(=O)N2C[C@H]3CC[C@@H]2[C@@H]3N)cc2nc(-c3cc4cccc(C5CC(NC(C)=O)C5)c4n3CC3CC3)n(C)c12` (single isomer, unassigned) [Example 58], the IC50 was 0.075 µM.
